{"source": "paper PMC3089604", "about": "(PLoS ONE, 2011)", "key": {"[1]": {"assay": "alamar Blue viability (toxicity) assay", "type": "cell-based", "conditions": "human; H4 neuroglioma cells, drug renewed every 24 h for four days; read-out: IC50 for viability (concentration resulting in 50% cell viability)", "protocol": "Cells undergoing any treatment, including β-carboline derivative dosing and siRNA treatment, were maintained in Dulbecco's Modified Eagle Medium (Invitrogen) supplemented with 10% fetal bovine serum (Invitrogen) and 2 mM L-Glutamine (Invitrogen). Viability assays were performed using a 96-well pate format. Metabolic activity was measured 12 hours after the addition of 10% alamar Blue (Invitrogen) directly to attached cells in full medium. This assay was based on the ability of metabolically active cells to convert alamar Blue reagent into a fluorescent signal proportional to innate metabolic activity. Once the ideal IC50 value for viability was identified, effects on multiple forms of tau were investigated after treating with the β-carbolines indicated in Table S1 using the larger 6 well plate format. For both the viability assay and cell culture tau assays, cell culture media was removed and cells were treated with freshly made drug in new media every 24 hours for four days. For cell culture tau assays, protein lysates were prepared after 96 hours of treatment. All compounds were solubilized in dimethylsulfoxide (DMSO), diluted in growth medium to their respective 0.01 µM, 0.1 µM, 1 µM and 10 µM final working dilutions and added directly to cultured cells. The final DMSO percentage in culture for all compounds and concentrations tested was 0.1%. […]"}, "[2]": {"tested_on": "tau phosphorylation in 4R0N tau overexpressing H4 neuroglioma cells", "assay": "Cell culture tau assay: western for total and phosphorylated tau after 96 h compound treatment", "type": "cell-based", "conditions": "for 12E8 % Control pTau/Total / pS396 % Control pTau/Total / pT231 % Control pTau/Total: normalized to total tau", "protocol": "4R0N tau overexpressing H4 neuroglioma cells were maintained in Dulbecco's Modified Eagle Medium (Invitrogen) supplemented with 10% fetal bovine serum (Invitrogen), 1% penicillin-streptomycin, geneticin (0.25 mg/ml), and 2 mM L-Glutamine (Invitrogen). Cells were maintained by splitting 1∶10 at 90% confluency. Prior to any experimentation, cells were 70–75% confluent to ensure cells were in their active growth phase. To test effects of DYRK1A knockdown on tau phosphorylation, cells were transfected with DYRK1A siRNA. Prior to treating cells with DYRK1A siRNA, siRNA was first complexed with siLentfect lipid transfection reagent (Bio-Rad) and reduced serum medium (Invitrogen) using a 6 well plate format. The final effective siRNA molarity used was 22.85 nM per well. Cells were grown for 96 hours at 37°C, 5% CO2. Cell lysates were prepared using the Complete Lysis-M, EDTA-free kit (Roche Applied Science) and total protein concentration was quantified using the BCA protein assay (Pierce). Westerns for the multiple forms of tau were performed as described below.\nFor all cell-based experiments, including siRNA treatments and compound treatments, cells were treated for 96 hours at 37°C, with 5% CO2. Cell lysates were then prepared using the Complete Lysis-M, EDTA-free kit (Roche Applied Science) supplemented with phosphatase inhibitor cocktails 1 and 2 (Sigma). Lysates were quantified using the BCA protein assay (Pierce). Protein from lysates (30 µg total protein per lane) was separated on SDS-PAGE gels and transferred to nitrocellulose membrane. Membranes were blocked in 5% blocking solution for one hour at room temperature (RT). Blocking buffer solution used for detection of non phosphorylated protein contained 5% Non-fat dry milk in 1×-TBS-T (50 mM Tris-HCl pH 7.4, 137 mM […], 2.7 mM KCl, 0.1% Tween). For detection of phosphorylated protein, blocking buffer solution contained 5% Bovine Serum Albumin in 1× TBS-T. Membranes were probed with primary antibody (various dilutions depending on the epitope – see below) in blocking buffer overnight at 4°C on a rocker. Membranes were subsequently washed with 1× TBS-T and probed with secondary antibody in blocking buffer for forty-five minutes using a 1∶25,000 dilution of HRP-GAM or HRP-GAR (Jackson Immunoresearch), depending on the species (mouse or rabbit) in which the primary antibodies were raised. Following incubation with secondary antibody, membranes were washed in 1× TBS-T and developed with Super Signal West Femto Maximum Sensitivity Substrate Kit ([…]) and digitally imaged. Protein band signal saturation was assessed before any further analysis of multiple forms of tau. Alpha Innotech Fluoro Chem SF imaging software verifies degrees of saturation when signal intensity is beyond the dynamic range (which is from 0–65,535). Protein band signal intensities used for quantification were within the instrument's dynamic range.\nTo test multiple primary antibodies, membranes were stripped for 15 minutes at RT using ReBlot Plus Mild Antibody Stripping Solution (Millipore). Membranes were then washed for 5 minutes in 1× TBS-T and blocked for one hour in 5% blocking solution at RT. For verification of protein loading, membranes were reprobed overnight at 4°C with an anti-Tubulin primary antibody (1∶1000 dilution; Cell Signaling). Primary antibodies used for detection included anti-tau (1∶2000 dilution; Dako), 12E8 tau (1∶7500 dilution; Peter Seubert, Elan Pharmaceuticals), pT231 tau (1∶1000 dilution; Abcam), pS396 tau (1∶5000 dilution; Abcam), and anti-DYRK1A (1∶500 dilution; Santa Cruz).\nCells undergoing any treatment, including β-carboline derivative dosing and siRNA treatment, were maintained in Dulbecco's Modified Eagle Medium (Invitrogen) supplemented with 10% fetal bovine serum (Invitrogen) and 2 mM L-Glutamine (Invitrogen). Viability assays were performed using a 96-well pate format. […]"}, "[3]": {"tested_on": "DYRK1A", "set-up": "method as in PMID 17850214", "conditions": "synthetic peptide substrate; read-out: IC50 against DYRK1A; cited from earlier work"}, "[4]": {"target": "T1, recombinant human DYRK1A (Homo sapiens, UniProt Q13627)", "T1 construct": "purchased Invitrogen", "assay": "In vitro kinase assay: DYRK1A catalyzed direct phosphorylation of recombinant tau on serine 396 (western)", "type": "biochemical", "conditions": "for IC50: recombinant DYRK1A + 4R2N tau, 1 mM ATP"}, "[5]": {"tested_on": "MAO-A", "set-up": "method as in PMID 18980841", "conditions": "read-out: IC50 against MAO-A; cited from earlier work"}, "[6]": {"conditions": "read-out: IC50 for inhibition of DYRK1A dependent tau phosphorylation at serine 396"}, "[7]": {"conditions": "30 min 30C, read-out: IC50 for inhibition of DYRK1A dependent tau phosphorylation at serine 396 (pS396)"}}, "note": "Read-outs that look alike come from different tables or passages of the source."}
{"smiles": "COc1ccc2c(c1)[nH]c1c(C)nccc12", "note": "[Harmine]", "values": [{"measurement": "IC50 at 4 days", "setting": "[1]", "result": 12, "unit": "µM"}, {"measurement": "12E8 (pS262/pS356) tau % Control", "setting": "[2]; 8 µM, 96 h, H4-tau cells", "result": "32 ± 7", "unit": "% Control"}, {"measurement": "Total Tau % Control", "setting": "[2]; 8 µM, 96 h, H4-tau cells", "result": "55 ± 9", "unit": "% Control"}, {"measurement": "pS396 tau % Control", "setting": "[2]; 8 µM, 96 h, H4-tau cells", "result": "49 ± 8", "unit": "% Control"}, {"measurement": "pT231 tau % Control", "setting": "[2]; 8 µM, 96 h, H4-tau cells", "result": "24 ± 6", "unit": "% Control"}, {"measurement": "12E8 % Control pTau/Total", "setting": "[2]; 8 µM, 96 h", "result": "58 ± 6", "unit": "% Control"}, {"measurement": "pS396 % Control pTau/Total", "setting": "[2]; 8 µM, 96 h", "result": "89 ± 7", "unit": "% Control"}, {"measurement": "pT231 % Control pTau/Total", "setting": "[2]; 8 µM, 96 h", "result": "44 ± 5", "unit": "% Control"}, {"measurement": "12E8 % Control pTau/Total", "setting": "[2]; 8 µM, 96 h, listed as harmine", "result": 58, "unit": "% Control"}, {"measurement": "pT231 % Control pTau/Total", "setting": "[2]; 8 µM, 96 h, listed as harmine", "result": 44, "unit": "% Control"}, {"measurement": "Concentration at which tau levels were significantly reduced (p<0.05)", "setting": "[2]; H4-tau cells, 96 h", "result": "[…]"}, {"measurement": "IC50", "setting": "[3]", "result": "[…]"}]}
{"smiles": "Cc1[nH]ccc2c1[nH]c1cc(=O)ccc12", "note": "[Harmol, harmol]", "values": [{"measurement": "IC50", "setting": "[4]; [6]", "result": 0.09, "unit": "µM"}]}
{"smiles": "Cc1nccc2c1[nH]c1ccccc12", "note": "[Harmane, harmane]", "values": [{"measurement": "IC50", "setting": "[4]; [7]", "result": 15, "unit": "µM"}]}
{"smiles": "c1ccc2c(c1)[nH]c1cnccc12", "note": "[Norharmane, norharmane]", "values": [{"measurement": "IC50", "setting": "[4]; [7]", "result": 45, "unit": "µM"}]}
{"smiles": "COc1ccc2c3c([nH]c2c1)C(C)=NCC3", "note": "[Harmaline, harmaline]", "values": [{"measurement": "IC50", "setting": "[4]; [7]", "result": 9, "unit": "µM"}]}
{"smiles": "O=C(NCCN1CCOCC1)c1ccc(Cl)cc1", "note": "[Moclobemide]", "values": [{"measurement": "12E8 (pS262/pS356) tau % Control", "setting": "[2]; 500 µM (highest concentration), 96 h", "result": "116 ± 10", "unit": "% Control"}, {"measurement": "Total Tau % Control", "setting": "[2]; 500 µM, 96 h", "result": "103 ± 7", "unit": "% Control"}, {"measurement": "pS396 tau % Control", "setting": "[2]; 500 µM, 96 h", "result": "98 ± 9", "unit": "% Control"}, {"measurement": "pT231 tau % Control", "setting": "[2]; 500 µM, 96 h", "result": "118 ± 13", "unit": "% Control"}, {"measurement": "12E8 % Control pTau/Total", "setting": "[2]; 500 µM", "result": "112 ± 8", "unit": "% Control"}, {"measurement": "pS396 % Control pTau/Total", "setting": "[2]; 500 µM", "result": "95 ± 9", "unit": "% Control"}, {"measurement": "pT231 % Control pTau/Total", "setting": "[2]; 500 µM", "result": "114 ± 12", "unit": "% Control"}, {"measurement": "Effect on levels of total tau or specific phosphorylated forms of tau", "setting": "[2]; doses up to 500 µM", "result": "did not reduce"}, {"measurement": "IC50", "setting": "[5]", "result": 3.9, "unit": "µM"}]}
{"smiles": "CCn1c2cc(OC)ccc2c2ccnc(C)c21", "note": "[9-ethylharmine]", "values": [{"measurement": "Reduction of IC50 relative to harmine", "setting": "[4]; pS396 in vitro phosphorylation, ethyl group on N-9 vs harmine", "result": "~2", "unit": "fold"}, {"measurement": "IC50", "setting": "[4]; [6]", "result": 0.4, "unit": "µM"}, {"measurement": "Concentration at which tau levels were significantly reduced (p<0.05)", "setting": "[2]; H4-tau cells, 96 h", "result": 1, "unit": "µM"}]}
